One block for each compound: values may come before it.
Legend:
Helix pomatia Type H-1 = assay: Cleavage by Helix pomatia Type H-1; assay type: biochemical; conditions: phosphate buffer pH 5, 6 and 7.4; room temperature
Method: (§1) The above compound was dissolved in a minimum of DMSO and added to Helix pomatia Type H-1 in phosphate buffer solutions at pH 5, 6 and 7.4, respectively at room temperature. Aliquots were taken out at different time points and LC-MS and HPLC used for analysis. LCMS analysis required a small organic extraction of each aliquot in order to remove the protein prior to analysis. Analytical HPLC allowed direct injection and offers high sensitivity and reliability. Caffeine was included as an internal standard. The compound was almost fully hydrolysed at 5 min.

amano lipase = assay: Cleavage by Amano lipase; assay type: biochemical, Pseudomonas fluorescens; conditions: phosphate buffer pH 5, 6 and 7.4; room temperature
Method: as §1, with “amano lipase” for “Helix pomatia Type H-1”

[1] = test system: Amano Lipase from Pseudomonas fluorescens; assay: Lipase test of linker X8: cleavage and model drug release; assay type: biochemical; conditions: for time to full conversion to X10 and X11: 1 mg/mL lipase, room temperature
Method: Compound X8 was exposed to lipase in phosphate buffered solutions at pH 6 and 7.4. […] The pH 6 and 7.4 tests were conducted to determine if any difference in the rate of intramolecular lactonisation would be observed. Initial tests involved incubation of the linker (1 mM in 2% DMSO/buffer) with 1 mg/mL lipase (>20 U/mL) at room temperature (FIG. 16). Caffeine was included as an internal standard. Aliquots were taken out at different time points and LC-MS and HPLC used for analysis.

acid phosphatase = assay: Cleavage by acid phosphatase; assay type: biochemical; conditions: phosphate buffer pH 5, 6 and 7.4; room temperature
Method: as §1, with “acid phosphatase” for “Helix pomatia Type H-1”, “1 hour.” for “5 min.”

Structure (SMILES): O=C(NCCNC(=O)c1ccccc1)OCc1ccc(OS(=O)(=O)O)cc1
time at which the compound was almost fully hydrolysed (Helix pomatia Type H-1): 5 min

time at which the compound was almost fully hydrolysed (amano lipase): 5 min
Structure (SMILES): CCCCCCCC(=O)OCCNC(=O)c1ccccc1

non-linear conversion to products, duration ([1]; FIG. 17, conditions not given): 114 min
time to full conversion to X10 and X11 ([1]; pH 6): 60 min
time to full conversion to X10 and X11 ([1]; pH 7.4, linker 1 mM in 2% DMSO/buffer): < 15 min
Structure (SMILES): CCCCCCCC(=O)OCCN(CC(=O)OCC(=O)c1ccc(Br)cc1)C(=O)c1ccccc1 [Example X8, 2-(N-(2-(2-(4-bromophenyl)-2-oxoethoxy)-2-oxoethyl)benzamido)ethyl octanoate]

time at which the compound was almost fully hydrolysed (acid phosphatase): 1 h
Structure (SMILES): O=C(NCCOP(=O)(O)O)c1ccccc1
